Measured values as given in patent US9102620B2, “Deuterated N-ethyl-N-phenyl-1,2-dihydro-4-hydroxy-5-chloro-1-methyl-2-oxoquinoline-3-carboxamide, salts and uses thereof” (TEVA PHARMACEUTICAL INDUSTRIES, LTD., priority 2010, dated 2015).
Where “and” joins values, the source holds several entries; their conditions need not be identical. Equal entries are not always repeated. Where two headings read alike, the source gives them in different places.

Experiments:
CYP3A4 mRNA = conditions: human, 3 days; for mRNA Percent positive control, CYP3A4: hepatocytes
Description: After treatment, the cells were incubated in situ with marker substrates for the analysis of phenacetin O-dealkylation (marker for CYP1A2) and midazolam 1′-hydroxylation (marker for CYP3A4/5) by LC/MS/MS.
Approximately 24 hours after the last treatment, hepatocytes were lysed in TRIzol reagent after the in situ marker substrate incubations, and cell lysates were stored at −75±5° C. For human hepatocyte preparation H971, media from six wells per treatment group was aspirated, and approximately 132 μL TRIzol were added to each well. The cell lysates were mixed by repeated pipetting. Total RNA was isolated from the cell lysates using the TRIzol protocol (Invitrogen) and was purified using the RNeasy Mini Kit (Qiagen Inc.) according to SOP L6161.02. RNA quality and concentration were determined by measuring absorbance at 260 and 280 nm on a BioTek Synergy HT plate reader (BioTek Instruments, Inc.) with KC4 Signature software (version 3.4 Rev 21, BioTek Instruments, Inc.) according to SOP L6162.02. The analysis of RNA integrity was carried out with the RNA 6000 Nano Assay Kit on an Agilent 2100 Bioanalyzer (Agilent Technologies, Inc.) according to SOP L6162.02. Single-stranded cDNA was prepared from RNA with the RT Master Mix using the AB 7300 Real Time PCR system thermocycling program or AB 7900HT Fast Real Time PCR System thermocycling program (Applied Biosystems) according to SOP L6160.04. […] The RT Master Mix was added to each RNA sample to complete the components of the reaction. No template controls (NTCs) were included in the analysis. For the NTC reactions, RNase-free water was added in place of the RNA sample. The cDNA prepared samples were stored at −20±5° C. prior to analysis by qRT-PCR.
Quantitative RT-PCR was carried out according to SOP L6160.04 (XenoTech, LLC) and the Applied Biosystems protocol. Each PCR was performed in triplicate. A Primer Mix was prepared for each Gene Expression assay. A typical Primer Mix contained TaqMan Universal Master Mix (1×), Gene Expression Assay (1×, 900 nM forward and reverse primers) and RNase-free water. The Reaction Mix was prepared by adding the Primer Mix to cDNA. A percentage of samples (no less than 10%) included NACs. […] The relative quantity of the target cDNA compared with that of the control cDNA (GAPDH) was determined by the ΔΔCt method (Applied Biosystems User Bulletin #2). Relative quantification measures the change in mRNA expression in a test sample relative to that in a control sample (e.g., DMSO). This method assumes that the efficiency of the target amplification and the efficiency of the endogenous control amplification are approximately equal.
For qRT-PCR, data were processed using the Sequence Detection System (SDS) Software version 1.4, for Relative Quantification (Applied Biosystems). This software analyzes relative gene expression using the comparative Ct method (ΔΔCt), which relates the PCR signal of the target transcript to the PCR signal of the target in an untreated control. Both the treated sample and the untreated control signals are normalized to the endogenous control (GAPDH), for which expression is not affected by treatment and expression is constant throughout the tissue being tested. […] Calculations are as follows: ΔCt=Ct(target)−Ct(endogenous control) 1. ΔΔCt=ΔCt(treated sample)−ΔCt(untreated control) 2. Fold change in expression=2−ΔΔCt 3.
The level of mRNA expression relative to the positive control was calculated as follows: […]

[1] = Pharmacokinetic profile in rat plasma following oral administration; assay type: in vivo
Description: The main objectives of this example were: • Quantification of Compound 1, Compound 2, Compound 3 and Laquinimod in rat plasma using LC/MS/MS bioanalytical method. • Characterization of the pharmacokinetic profile of Compound 1, Compound 2, Compound 3 and Laquinimod following oral (PO) administration at a dose of 0.2 mg/kg. • The measurement DELAQ concentrations in the collected plasma samples. Rats cannulated at the right common jugular vein by polyethylene tubing were used. In the in-life part, three cannulated female rats were treated with each of the four test articles at dose of 0.2 mg/kg. Blood was withdrawn from the rats at five different time points for the preparation of plasma. The concentrations of Compound 1, Compound 2, Compound 3, laquinimod, and DELAQ were determined in these plasma samples, using applicable LC/MS/MS methods. Oral administration was performed by oral gavage at a dosage volume of 5 ml/kg using a blunt feeding stainless steel needle (Popper & Sons, USA). Body weights were measured before dose administration and doses were calculated on the basis of individual body weight. Blood were withdrawn from animals at the following time points: 1, 2, 4, 8 and 24 hours after dosing as detailed in the table below. The actual sampling time were recorded. Each animal was restrained firmly. After the removal of the seal the port of the cannula was accessed with an appropriate blunted needle mounted on a syringe containing PBS. After having withdrawn approximately 100 μL of blood, the syringe was changed to a clean heparinized syringe. Approximately 250 μL of blood was collected for the preparation of plasma. The first 100 μL fraction of blood was returned and 250 μL of PBS was given to the animal through the catheter. The catheter was filled by heparinized glycerol (100 IU/ml) solution prepared by mixing 10 ml stock heparin (200 IU/ml) with 10 ml of sterile glycerol (d=1.26 g/mL). Blood specimens were mixed immediately and were placed on water ice. Whole blood was centrifuged at 2500 g for 10 min at 4° C., and the separated plasma was transferred into pre-labeled polypropylene tubes and the tubes were frozen at −70° C. within 70 minutes of collection. The concentrations of test items (Compound 1, Compound 2, Compound 3 and Laquinimod) and the concentration of DELAQ were determined in the plasma samples by using reliable LC/MS/MS assay. Pharmacokinetic parameters were calculated and the mean plasma levels versus time curves were evaluated. The following pharmacokinetic parameters were determined from the mean plasma concentration-time data (mean of three animals at each time point) of Compound 1, Compound 2, Compound 3 and Laquinimod.

[2] = female, rat, po, 0.2 mg/kg, Average of rats
[3] = female, rat, po, 0.2 mg/kg, Average of rats, read-out: Cmax
[4] = female, rat, po, 0.2 mg/kg, Average of rats, read-out: Tmax
[5] = female, rat, po, 0.2 mg/kg, individual rats
[6] = female, rat, po, 0.2 mg/kg, individual rats, read-out: Cmax
[7] = female, rat, po, 0.2 mg/kg, individual rats, read-out: Tmax
[8] = individual rats, oral 0.2 mg/kg

Row | SMILES | mRNA Fold increase, CYP3A4 (CYP3A4 mRNA; 0.01 μM) [fold] | mRNA Fold increase, CYP3A4 (CYP3A4 mRNA; 0.05 μM) [fold] | mRNA Fold increase, CYP3A4 (CYP3A4 mRNA; 0.1 μM) [fold] | mRNA Fold increase, CYP3A4 (CYP3A4 mRNA; 1 μM) [fold] | mRNA Fold increase, CYP3A4 (CYP3A4 mRNA; 10 μM) [fold] | mRNA Percent positive control, CYP3A4 (CYP3A4 mRNA; 0.01 μM) [%] | mRNA Percent positive control, CYP3A4 (CYP3A4 mRNA; 0.05 μM) [%] | mRNA Percent positive control, CYP3A4 (CYP3A4 mRNA; 0.1 μM) [%] | mRNA Percent positive control, CYP3A4 (CYP3A4 mRNA; 1 μM) [%] | mRNA Percent positive control, CYP3A4 (CYP3A4 mRNA; 10 μM) [%] | AUC(0-inf) [1, 2] [ng·h/mL] | AUC(0-t) [1, 2] [ng·h/mL] | half-life [1, 2] [h] | Cmax [1, 3] [ng/mL] | Tmax [1, 4] [h] | AUC(0-inf) [1, 5] [ng·h/mL] | AUC(0-t) [1, 5] [ng·h/mL] | half-life [1, 5] [h] | Cmax [1, 6] [ng/mL] | Tmax [1, 7] [h] | also measured
1 | [2H]C([2H])([2H])C([2H])([2H])N(C(=O)c1c(O)c2c(Cl)cccc2n(C)c1=O)c1ccccc1 [Compound 2, N-D5-ethyl-N-phenyl-1,2-dihydro-4-hydroxy-5-chloro-1-methyl-2-oxoquinoline-3-carboxamide] | 0.437 | 0.428 | 0.339 | 0.252 | 0.689 | −15.5 | −15.8 | −18.2 | −20.6 | −8.57 | 12300 | 10300 | 13.8 | 725 | 1.8 | 10000 | 10000 | 13.6 | 704 | 2 | AUCinf [1, 8]: 14699.6 ng·h/mL and 12439.0 ng·h/mL and 11975.3 ng·h/mL; AUClast [1, 8]: 10422.1 ng·h/mL and 8741.6 ng·h/mL and 11975.3 ng·h/mL; Cmax [1, 8]: 827.6 ng/mL and 551.4 ng/mL and 816.2 ng/mL; T1/2 [1, 8]: 13.4 h and 14.6 h; Tmax [1, 8]: 1.0 h
2 | CCN(C(=O)c1c(O)c2c(Cl)cccc2n(C)c1=O)c1ccccc1 [Laquinimod, N-ethyl-N-phenyl-1,2-dihydro-4-hydroxy-5-chloro-1-methyl-2-oxoquinoline-3-carboxamide] | 0.621 | 0.347 | 0.427 | 0.286 | 0.636 | −10.4 | −18.0 | −15.8 | −19.7 | −10.0 | 15500 | 11700 | 11.8 | 794 | 1.7 | 14700 | 11000 | 12 | 770 | 2 | AUCinf [1, 8]: 17141.8 ng·h/mL and 14684.6 ng·h/mL; AUClast [1, 8]: 12659.7 ng·h/mL and 11487.3 ng·h/mL; Cmax [1, 8]: 774.8 ng/mL and 838.8 ng/mL; T1/2 [1, 8]: 12.4 h and 10.9 h; Tmax [1, 8]: 1.0 h
